As a reminder, the solubility is the concentration that dissolves in the medium under given conditions. What is called AUC(0-t) is exposure summed from dosing to a finite time, without extrapolation to infinity. Low values mean less exposure, high ones more exposure. In general, Km refers to the concentration of substrate that gives half-maximal velocity.

Series [1] relates to cytochrome(s) P450.
The test system of series [2] is human liver microsomes. Nature of the series: Glucuronidation of UGT substrates by human liver microsomes. Conditions: for substrate loss, 2ME2: 2ME2 50 μM. In general terms: Liver microsomes are a subcellular fraction often used to study metabolism.
Series [3] relates to pooled human jejunum microsomes. Nature of the series: Glucuronidation of UGT substrates by pooled human jejunum microsomes. Conditions: jejunum HJ61, 50 μg/ml; 2ME2 50 μM.
Series [4] concerns UGT enzymes of pooled human jejunum microsomes. Nature of the series: Inhibition of 2ME2 glucuronidation (MG1) in pooled human jejunum microsomes. Type of series: biochemical. Conditions: jejunum HJ61, 2ME2 50 μM. The text has this:
(§1) Compounds were eluted using a binary solvent gradient system where solvent A was dilute phosphoric acid (pH 3) and solvent B was 80:20 acetonitrile-methanol. […] Detection was at 280 nm.

The subject of series [5] is UGT enzymes of human liver microsomes. Briefly: Inhibition of 2ME2 glucuronidation (MG1, MG2) in human liver microsomes. Type of series: biochemical. Conditions: liver 062101, 2ME2 50 μM.
Excerpt: as §1

The test system of series [6] is T1, UGT enzymes of human liver microsomes.
T1 construct: other: liver 062101
The description is as above. Type of series: biochemical. Conditions: liver 062101, 2ME2 50 μM.
Excerpt: as §1

Series [7] can be described thus: Solubility in microsomal incubation mixtures.
The target of series [8] is T2, UGT enzymes of human liver microsomes (Homo sapiens, UniProt P16662).
T2 construct: residual metabolism (percentage of control), zidovudine glucuronidation; other: liver lot 062101; residual metabolism (percentage of control), zidovudine glucuronidation; residual metabolism (percentage of control)
T2 sequence (P16662 1-529): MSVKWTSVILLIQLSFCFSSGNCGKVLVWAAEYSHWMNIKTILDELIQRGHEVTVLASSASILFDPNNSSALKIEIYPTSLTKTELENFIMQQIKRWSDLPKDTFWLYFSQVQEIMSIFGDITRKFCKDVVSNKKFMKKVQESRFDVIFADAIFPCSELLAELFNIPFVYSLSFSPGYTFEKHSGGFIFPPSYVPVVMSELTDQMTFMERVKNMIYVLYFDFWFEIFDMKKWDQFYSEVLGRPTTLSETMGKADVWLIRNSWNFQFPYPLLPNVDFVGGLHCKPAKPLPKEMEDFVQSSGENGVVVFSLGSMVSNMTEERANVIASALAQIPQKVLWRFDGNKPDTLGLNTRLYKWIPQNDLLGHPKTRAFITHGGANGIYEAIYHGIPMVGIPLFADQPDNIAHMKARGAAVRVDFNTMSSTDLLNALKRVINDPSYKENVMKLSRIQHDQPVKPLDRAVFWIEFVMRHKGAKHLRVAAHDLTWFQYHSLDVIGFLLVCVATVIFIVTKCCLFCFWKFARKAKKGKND
Briefly: Inhibition of zidovudine glucuronidation in human liver microsomes. Type of series: biochemical. Conditions: liver lot 062101. How it is done: Compounds were eluted using a binary solvent gradient system where solvent A was dilute phosphoric acid (pH 3) and solvent B was acetonitrile.
Standardized incubations utilized 500 μM zidovudine substrate, 1 mg/ml microsomal protein, 5 mM UDPGA and a 30 min incubation time. […] Int.

Series [9] is described as follows: in vivo. Conditions: female, Sprague-Dawley, rat, po, 10 mg/kg. How it is done: Female Sprague-Dawley rats (220-250 g body weight) with cannulae inserted into the jugular vein were purchased from Hilltop Animals Inc. (Scottsdale, Pa.). Catheter patency was maintained using a heparin lock. Animals were individually housed at 18-26° C. and allowed free movement and access to water. Rats were fed standard Laboratory Rodent Diet during a minimum 1-day acclimatization period but were fasted from at least 8 h prior to dose administration and were not administered food throughout the study.
Immediately prior to treatment, the ethanol was removed by nitrogen evaporation and rats were administered 1 ml/kg of each emulsion using a standard gavage needle. […] Blood volume was replaced with saline after each sample. Whole blood samples were collected in Microtainer® tubes (Becton-Dickinson, Franklin Lakes, N.J.) containing sodium EDTA anti-coagulant. Erythrocytes were precipitated by centrifugation (2800 rpm×10-20 min) and plasma samples were stored in the freezer prior to extraction and analysis.
Plasma samples (100 μl) were extracted by vortex mixing for 60 sec with 200 μl extraction solvent (80% acetonitrile 20% 2 mM NH4OAc pH 9) and 20 μl internal standard solution (1 μM tamoxifen in methanol). […] The lower limit of quantitation was 2 ng/ml.

Series [10] relates to UGT enzymes of human liver microsomes. Nature of the series: Inhibition of raloxifene glucuronidation (G1, G2) in human liver microsomes. Type of series: biochemical. The text has this: Compounds were eluted using a binary solvent gradient system. […] Solvent B was methanol. […] Detection was at 280 nm.
For series [11] the following is noted: humans; cited from earlier work.
Series [12] has as its system human liver microsomes. Conditions: cited from earlier work.
The subject of series [13] is T3, UGT enzymes of human liver microsomes.
T3 construct: percentage of control metabolism, 7-HFC glucuronidation; percentage of control metabolism, 7-HFC glucuronidation
Nature of the series: Inhibition of 7-HFC glucuronidation in human liver microsomes. Type of series: biochemical. Conditions: inhibitor 500 μM; 7-HFC 50 μM, human liver microsomes 100 μg/ml, 15 min.

≈ marks a conversion by molar mass, not a printed value. Where “and” joins values, the source holds several entries; their conditions need not be identical. Equal entries are not always repeated.

On to `COc1cc2c(cc1O)CC[C@@H]1[C@@H]2CC[C@]2(C)[C@@H](O)CC[C@@H]12` [2ME2, 2-Methoxyestradiol], for which the “NADPH-dependent metabolism, in words” value in series [1] was “Negligible NADPH-dependent metabolism”. The “total loss of 2ME2 from liver microsomal incubation after 60 min” value in [2] (50 μM substrate) came out at 42%. The “substrate loss, 2ME2” value in series [2] (liver lot 032101, 250 μg/ml) is 1,573 ± 243 pmol/min/mg; in [2] (liver lot 062101, 250 μg/ml) it was 1,035 ± 52 pmol/min/mg; in series [3] it was 19,797 ± 631 pmol/min/mg.

For the compound `O=C(c1ccc(OCCN2CCCCC2)cc1)c1c(-c2ccc(O)cc2)sc2cc(O)ccc12` [Raloxifene, raloxifene, reference compound], the “residual metabolism (% of control), 2ME2 MG1” value was 73 (1) % in [4] (inhibitor 5 μM); 58 (1) % in series [4] (inhibitor 10 μM); 31 (3) % in series [4] (inhibitor 25 μM); 17 (0) % in series [4] (inhibitor 50 μM); 12 (0) % in [4] (inhibitor 100 μM); 77 (1) % in series [5] (inhibitor 5 μM). The “residual metabolism (% of control), 2ME2 MG1” value in series [5] (inhibitor 10 μM) is given as 63 (1) %; in [6] (inhibitor 25 μM) it was 42 (0) %; in series [6] (inhibitor 50 μM) it was 32 (2) %; in series [6] (inhibitor 100 μM), 24 (2) %. The “residual metabolism (% of control), 2ME2 MG2” value in series [5] (inhibitor 5 μM) is listed as 98 (1) %; in series [5] (inhibitor 10 μM) it was 88 (0) %; in series [6] (inhibitor 25 μM), 70 (0) %; in series [6] (inhibitor 50 μM), 41 (2) %; in series [6] (inhibitor 100 μM), 20 (1) %. In series [7] (500 μM), the “solubility in the microsomal incubation” value is on record as “insoluble”. Also, the solubility in series [7] (microsomal incubation mixtures) came to 100 µM (≈ 47.4 µg/mL). Also, the “residual metabolism (percentage of control), zidovudine glucuronidation” value in series [8] (inhibitor 100 μM) was 76 (3) %; in series [8] (inhibitor 200 μM), 32 (4) %. Further, the figures for the AUC(0-t) in series [9] (Raloxifene AUC0-8) and in [9] (Raloxifene AUC0-24) were 77 ± 61 ng·h/mL and 114 ± 90 ng·h/mL, respectively.

Regarding `Cc1cn([C@H]2C[C@H](N=[N+]=[N-])[C@@H](CO)O2)c(=O)[nH]c1=O` [Zidovudine, zidovudine, reference compound], in series [10], the “% of control metabolism (SD, n = 3), raloxifene glucuronide G1” value is reported as 93 (3) % and the “% of control metabolism (SD, n = 3), raloxifene glucuronide G2” value is listed as 93 (1) %. The absolute oral bioavailability in series [11] was 65% and 52-75%. For the same compound, in series [12], the Michaelis constant (Km) was 3000 to 5000 µM. Also, the “% of control metabolism (SD, n = 3), 7-HFC glucuronidation” value in [13] is 99 (1) %.

The values above are taken from patent US20030215462A1, “Use of UGT inhibitors to increase bioavailability” (priority 2001, published 2003).
